{"source": "ChEMBL document CHEMBL5223061", "about": "“Mechanisms and inhibitors of nicotinamide N-methyltransferase” (RSC Med Chem, 2021)", "molecules": {"B1": {"name": "Nicotinamide N-methyltransferase (Homo sapiens), P40261 (protein)", "chain": "MESGFTSKDTYLSHFNPRDYLEKYYKFGSRHSAESQILKHLLKNLFKIFCLDGVKGDLLIDIGSGPTIYQLLSACESFKEIVVTDYSDQNLQELEKWLKKEPEAFDWSPVVTYVCDLEGNRVKGPEKEEKLRQAVKQVLKCDVTQSQPLGAVPLPPADCVLSTLCLDAACPDLPTYCRALRNLGSLLKPGGFLVIMDALKSSYYMIGEQKFSSLPLGREAVEAAVKEAGYTIEWFEVISQSYSSTMANNEGLFSLVARKLSRPL"}}, "key": {"[1]": {"biological_target": "T1, Nicotinamide N-methyltransferase (Homo sapiens) (UniProt P40261)", "T1 sequence (whole entry)": "B1 chain", "experiment": "Inhibition of recombinant human NNMT expressed in Escherichia coli BL21 (DE3) assessed as Kobs/[I] ratio and measured after 20 mins using nicotinamide as substrate and SAM as cofactor by MTase-Glo reagent based assay"}, "[2]": {"biological_target": "T1, Nicotinamide N-methyltransferase (Homo sapiens)", "experiment": "Inhibition of NNMT (unknown origin) assessed as formation of MNA at 0.5 uM using nicotinamide as substrate and SAM as cofactor by fluorescence based assay"}, "[3]": {"biological_target": "T1, Nicotinamide N-methyltransferase (Homo sapiens)", "experiment": "Inhibition of human NNMT at 30 uM preincubated for 30 mins followed by substrate, cofactor addition and measured after 60 mins using nicotinamide as substrate and SAM as cofactor by fluorescence enzymatic assay", "conditions": "time 90.0 min"}, "[4]": {"experiment": "Inhibition of monkey NNMT preincubated for 30 mins followed by substrate, cofactor addition and measured after 60 mins using nicotinamide as substrate and SAM as cofactor by fluorescence enzymatic assay", "design": "species or system Macaca mulatta"}, "[5]": {"substrate": "NC(=O)c1cccnc1", "experiment": "Binding affinity to recombinant human NNMT expressed in Escherichia coli BL21 (DE3) assessed as Km preincubated for 10 mins followed by NAM addition and measured after 10 mins by Michaelis-Menten analysis", "conditions": "time 20.0 min"}, "[6]": {"substrate": "C[S+](CC[C@H](N)C(=O)[O-])C[C@H]1O[C@@H](n2cnc3c(N)ncnc32)[C@H](O)[C@@H]1O", "experiment": "Binding affinity to recombinant human NNMT expressed in Escherichia coli BL21 (DE3) assessed as Km preincubated for 10 mins followed by SAM addition and measured after 10 mins by Michaelis-Menten analysis", "conditions": "time 20.0 min"}}, "data": [{"molecule": "NC(=O)c1cnccc1Cl", "values": [{"measurement": "Ratio", "setting": "[1]", "result": 80, "unit": "M⁻¹ min⁻¹"}]}, {"molecule": "Clc1ccncc1", "values": [{"measurement": "Ratio", "setting": "[1]", "result": 20, "unit": "M⁻¹ min⁻¹"}]}, {"molecule": "C=C(C)[C@@]12O[C@@]3(/C=C/C=C/CCCCC)O[C@@H]1[C@@H]1[C@@H]4O[C@]4(CO)[C@@H](O)[C@]4(O)C(=O)C(C)=C[C@H]4[C@@]1(O3)[C@H](C)[C@H]2OC(C)=O", "values": [{"measurement": "inhibition", "setting": "[2]", "result": 50, "unit": "%"}]}, {"molecule": "CNC(=O)c1ccc(OC)nc1", "values": [{"measurement": "inhibition", "setting": "[3]", "result": 20, "unit": "%"}]}, {"molecule": "COc1ccc(C(N)=O)cn1", "values": [{"measurement": "IC50", "setting": "[4]", "result": 2.8, "unit": "µM"}]}, {"molecule": "B1", "values": [{"measurement": "Km", "setting": "[5]", "result": 199, "unit": "µM"}, {"measurement": "Km", "setting": "[6]", "result": 8.5, "unit": "µM"}]}]}
